# Results taken from US20230114728A1 (Venatorx Pharmaceuticals, Inc., priority 2019, published 2023).
# Legend:
# P. aeruginosa PBP3 = target: T1, P. aeruginosa PBP3 (Pseudomonas aeruginosa, UniProt G3XD46); test: Bocillin-FL fluorescence polarization competition binding assay, P. aeruginosa PBP3; conditions: fluorescence polarization competition binding assay using Bocillin-FL
# T1 construct: made in house
# Summary of the method: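 Binding of boronic acid inhibitors to purified Pseudomonas aeruginosa (PA01) PBP3 was measured by fluorescence polarization competition with Bocillin-FL, a fluorescent penicillin V. Reactions of 80 μl contained 0.75 μM PBP3 and 0.1 μM Bocillin-FL in 50 mM Hepes (pH 8.0), 300 mM NaCl and 5% (v/v) glycerol, in black 384-well plates. FP (Excitation 490 nm, Emission 520 nm) was read for up to 60 minutes. EC50 is the concentration that halves PBP-bound Bocillin-FL.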
# N. gonorrhoeae WHO L = test: Liquid broth MIC in Fastidious broth; format: cell-based; conditions: Neisseria gonorrhoeae; N. gonorrhoeae strain WHO L; Fastidious broth; read-out: Minimum Inhibitory Concentration, N. gonorrhoeae WHO L
# Summary of the method: (§1)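 Colonies were swabbed from chocolate agar after 24 h growth and standardised by optical density at 600 nm. Compounds were serially diluted twofold in Fastidious broth, and bacteria added to give 5×10^5 CFU/mL. After about 24 h at 36 °C in 5% CO2, the lowest concentration allowing under 10% growth was taken as MIC.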
# N. gonorrhoeae WHO G = test: Liquid broth MIC in Fastidious broth; format: cell-based; conditions: Neisseria gonorrhoeae; N. gonorrhoeae strain WHO G; Fastidious broth; read-out: Minimum Inhibitory Concentration, N. gonorrhoeae WHO G
# Summary of the method: as §1
# N. gonorrhoeae H041 = test: Liquid broth MIC in Fastidious broth; format: cell-based; conditions: Neisseria gonorrhoeae, H041, read-out: Minimum Inhibitory Concentration, N. gonorrhoeae H041
# Summary of the method: (§2)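 Broth microdilution against gonococcal strains expressing mosaic PBP2, starting inoculum 5×10^5 CFU/mL in Fastidious broth. Incubation runs ~24 h at 36 °C under 5% CO2, with MIC scored visually at <10% of full growth.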
# N. gonorrhoeae WHO K = test: Liquid broth MIC in Fastidious broth; format: cell-based; conditions: Neisseria gonorrhoeae, read-out: Minimum Inhibitory Concentration, N. gonorrhoeae WHO K
# Summary of the method: as §2
# [1] = tested on: N. gonorrhoeae ATCC 49226; test: Liquid broth MIC in Fastidious broth; format: cell-based; conditions: Neisseria gonorrhoeae, ATCC49226; N. gonorrhoeae strain ATCC 49226; Fastidious broth; read-out: Minimum Inhibitory Concentration, N. gonorrhoeae ATCC 49226
# Summary of the method: as §1
# N. gonorrhoeae FA1090 = test: Liquid broth MIC in Fastidious broth; format: cell-based; conditions: Neisseria gonorrhoeae; N. gonorrhoeae strain FA1090; Fastidious broth; read-out: Minimum Inhibitory Concentration, N. gonorrhoeae FA1090
# Summary of the method: as §1
# T1 sequence (G3XD46 whole entry): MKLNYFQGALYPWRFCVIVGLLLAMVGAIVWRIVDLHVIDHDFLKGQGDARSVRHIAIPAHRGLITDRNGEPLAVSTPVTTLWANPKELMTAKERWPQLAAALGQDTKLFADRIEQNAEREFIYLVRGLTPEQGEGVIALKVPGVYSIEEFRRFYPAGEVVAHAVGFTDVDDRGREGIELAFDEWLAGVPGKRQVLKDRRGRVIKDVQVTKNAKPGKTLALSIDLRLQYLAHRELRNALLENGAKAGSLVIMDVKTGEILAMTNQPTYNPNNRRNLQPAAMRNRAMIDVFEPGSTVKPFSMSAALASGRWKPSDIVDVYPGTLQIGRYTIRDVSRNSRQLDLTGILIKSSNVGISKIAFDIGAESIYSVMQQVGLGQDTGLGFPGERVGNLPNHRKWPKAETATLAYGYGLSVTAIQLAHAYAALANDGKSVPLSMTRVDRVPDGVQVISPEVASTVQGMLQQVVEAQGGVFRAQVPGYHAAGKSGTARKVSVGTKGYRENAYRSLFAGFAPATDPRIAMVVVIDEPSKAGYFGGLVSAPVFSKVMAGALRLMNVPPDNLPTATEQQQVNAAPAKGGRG
Structure (SMILES),P. aeruginosa PBP3 Potency (P. aeruginosa PBP3),MIC (N. gonorrhoeae WHO L) [mg/L],MIC (N. gonorrhoeae WHO G) [mg/L],MIC (N. gonorrhoeae H041) [mg/L],MIC (N. gonorrhoeae WHO K) [mg/L],MIC [1] [mg/L],MIC (N. gonorrhoeae FA1090) [mg/L]
"CCN1CCN(C(=O)NC(C(=O)N[C@H]2Cc3cccc(C(=O)O)c3OB2O)c2cccc(N)c2)C(=O)C1=O (stereo partly drawn) [Example 72, (3R)-3-(2-(3-aminophenyl)-2-(4-ethyl-2,3-dioxopiperazine-1-carboxamido)acetamido)-2-hydroxy-3,4-dihydro-2H-benzo[e][1,2]oxaborinine-8-carboxylic acid]",D (D represents a potency <10 μM),> 64,1 to 2,> 64,> 64,4 to 8,0.25 to 0.5
"CCN1CCN(C(=O)NC(C(=O)N[C@H]2Cc3cccc(C(=O)O)c3OB2O)c2cccc(NC(=O)c3ccc(O)c(O)c3Cl)c2)C(=O)C1=O (stereo partly drawn) [Example 73, (3R)-3-(2-(3-(2-chloro-3,4-dihydroxybenzamido)phenyl)-2-(4-ethyl-2,3-dioxopiperazine-1-carboxamido)acetamido)-2-hydroxy-3,4-dihydro-2H-benzo[e][1,2]oxaborinine-8-carboxylic acid]",D (D represents a potency <10 μM),> 64,16 to 32,> 64,> 64,> 64,1 to 2
"CCN1CCN(C(=O)NC(C(=O)N[C@H]2Cc3cccc(C(=O)O)c3OB2O)c2ccc(O)c(NC(=O)c3ccc(O)c(O)c3Cl)c2)C(=O)C1=O (stereo partly drawn) [Example 74, (3R)-3-(2-(3-(2-chloro-3,4-dihydroxybenzamido)-4-hydroxyphenyl)-2-(4-ethyl-2,3-dioxopiperazine-1-carboxamido)acetamido)-2-hydroxy-3,4-dihydro-2H-benzo[e][1,2]oxaborinine-8-carboxylic acid]",D (D represents a potency <10 μM),> 64,16 to 32,> 64,> 64,> 64,1 to 2
"CCN1CCN(C(=O)NC(C(=O)N[C@H]2Cc3cccc(C(=O)O)c3OB2O)c2cccc([N+](=O)[O-])c2)C(=O)C1=O (stereo partly drawn) [Example 75, (3R)-3-(2-(4-ethyl-2,3-dioxopiperazine-1-carboxamido)-2-(3-nitrophenyl)acetamido)-2-hydroxy-3,4-dihydro-2H-benzo[e][1,2]oxaborinine-8-carboxylic acid]",D (D represents a potency <10 μM),> 64,4 to 8,> 64,> 64,4 to 8,0.25 to 0.5
"CCN1CCN(C(=O)NC(C(=O)N[C@H]2Cc3cccc(C(=O)O)c3OB2O)c2cccc(NS(C)(=O)=O)c2)C(=O)C1=O (stereo partly drawn) [Example 76, (3R)-3-(2-(4-ethyl-2,3-dioxopiperazine-1-carboxamido)-2-(3-(methylsulfonamido)phenyl)acetamido)-2-hydroxy-3,4-dihydro-2H-benzo[e][1,2]oxaborinine-8-carboxylic acid]",D (D represents a potency <10 μM),> 64,16 to 32,> 64,> 64,> 64,1 to 2
"CCN1CCN(C(=O)NC(C(=O)N[C@H]2Cc3cccc(C(=O)O)c3OB2O)c2cc(O)ccc2O)C(=O)C1=O (stereo partly drawn) [Example 77, (3R)-3-(2-(2,5-dihydroxyphenyl)-2-(4-ethyl-2,3-dioxopiperazine-1-carboxamido)acetamido)-2-hydroxy-3,4-dihydro-2H-benzo[e][1,2]oxaborinine-8-carboxylic acid]",B (B represents a potency between 30 μM and 500 μM inclusive),> 64,16 to 32,> 64,> 64,16 to 32,4 to 8
"N=C(N)NCCN1CCN(C(=O)NC(C(=O)N[C@H]2Cc3ccc(F)c(C(=O)O)c3OB2O)c2ccc(C(=O)O)c(F)c2)C(=O)C1=O (stereo partly drawn) [Example 78, (3R)-3-(2-(4-carboxy-3-fluorophenyl)-2-(4-(2-guanidinoethyl)-2,3-dioxopiperazine-1-carboxamido)acetamido)-7-fluoro-2-hydroxy-3,4-dihydro-2H-benzo[e][1,2]oxaborinine-8-carboxylic acid]",D (D represents a potency <10 μM),> 64,4 to 8,> 64,> 64,16 to 32,4 to 8
